Key:
Assay in all cases: PDSP binding, primary screen
M5 = biological target: T1, M5 (Homo sapiens, UniProt P08912)
T1 construct: purchased NIMH Psychoactive Drug Screening Program (PDSP), University of North Carolina-Chapel Hill
Protocol: (§1) This was achieved through the identification of potential pharmacological targets of compound 22 using the Psychoactive Drug Screening Program (PDSP) at University of North Carolina-Chapel-Hill. PDSP provides a platform for screening novel psychoactive compounds on human proteins expressed in the central nervous system in order to identify their biological target(s) ([Besnard et al., 2012]). Binding studies were done on 47 targets at a single dose of compound 22 (10 μM; Supplementary Table S1). This primary screen yielded a total of 5 hits for compound 22 (Table 2). These hits were the serotonin, dopamine, and norepinephrine transporters, as well as the sigma 1 and sigma 2 receptors.
(§2) Supplemental Table 1. Compound 22 binding studies from PDSP: primary screen for compound 22 and subsequent hits (50% cut-off, hits highlighted in red). The primary screen was performed by PDSP as described previously (Besnard et al., 2012).

5-HT2B = biological target: T2, 5-HT2B (Homo sapiens, UniProt P41595)
T2 construct: purchased NIMH Psychoactive Drug Screening Program (PDSP), University of North Carolina-Chapel Hill
Protocol: as §1, §2

5-HT2A = biological target: T3, 5-HT2A (Homo sapiens, UniProt P28223)
T3 construct: purchased NIMH Psychoactive Drug Screening Program (PDSP), University of North Carolina-Chapel Hill
Protocol: as §1, §2

M2 = biological target: T4, M2 (Homo sapiens, UniProt P08172)
T4 construct: purchased NIMH Psychoactive Drug Screening Program (PDSP), University of North Carolina-Chapel Hill
Protocol: as §1, §2

MOR = biological target: T5, MOR (Homo sapiens, UniProt P35372)
T5 construct: purchased NIMH Psychoactive Drug Screening Program (PDSP), University of North Carolina-Chapel Hill
Protocol: as §1, §2

Beta2 = biological target: T6, Beta2 (Homo sapiens, UniProt P07550)
T6 construct: purchased NIMH Psychoactive Drug Screening Program (PDSP), University of North Carolina-Chapel Hill
Protocol: as §1, §2

5-HT7 = biological target: T7, 5-HT7 (Homo sapiens, UniProt P34969)
T7 construct: purchased NIMH Psychoactive Drug Screening Program (PDSP), University of North Carolina-Chapel Hill
Protocol: as §1, §2

5-HT1A = biological target: T8, 5-HT1A (Homo sapiens, UniProt P08908)
T8 construct: purchased NIMH Psychoactive Drug Screening Program (PDSP), University of North Carolina-Chapel Hill
Protocol: as §1, §2

H2 = biological target: T9, H2 (Homo sapiens, UniProt P25021)
T9 construct: purchased NIMH Psychoactive Drug Screening Program (PDSP), University of North Carolina-Chapel Hill
Protocol: as §1, §2

M3 = biological target: T10, M3 (Homo sapiens, UniProt P20309)
T10 construct: purchased NIMH Psychoactive Drug Screening Program (PDSP), University of North Carolina-Chapel Hill
Protocol: as §1, §2

DOR = biological target: T11, DOR (Homo sapiens, UniProt P41143)
T11 construct: purchased NIMH Psychoactive Drug Screening Program (PDSP), University of North Carolina-Chapel Hill
Protocol: as §1, §2

Alpha1B = biological target: T12, Alpha1B (Homo sapiens, UniProt P35368)
T12 construct: purchased NIMH Psychoactive Drug Screening Program (PDSP), University of North Carolina-Chapel Hill
Protocol: as §1, §2

Sigma 1 = biological target: T13, Sigma 1 (Homo sapiens, UniProt Q99720)
T13 construct: purchased NIMH Psychoactive Drug Screening Program (PDSP), University of North Carolina-Chapel Hill
Protocol: as §1, §2

KOR = biological target: T14, KOR (Homo sapiens, UniProt P41145)
T14 construct: purchased NIMH Psychoactive Drug Screening Program (PDSP), University of North Carolina-Chapel Hill
Protocol: as §1, §2

5-HT3 = biological target: T15, 5-HT3 (Homo sapiens, UniProt P46098)
T15 construct: purchased NIMH Psychoactive Drug Screening Program (PDSP), University of North Carolina-Chapel Hill
Protocol: as §1, §2

H3 = biological target: T16, H3 (Homo sapiens, UniProt Q9Y5N1)
T16 construct: purchased NIMH Psychoactive Drug Screening Program (PDSP), University of North Carolina-Chapel Hill
Protocol: as §1, §2

D1 = biological target: T17, D1 (Homo sapiens, UniProt P21728)
T17 construct: purchased NIMH Psychoactive Drug Screening Program (PDSP), University of North Carolina-Chapel Hill
Protocol: as §1, §2

NET = biological target: T18, NET (Homo sapiens, UniProt P23975)
T18 construct: purchased NIMH Psychoactive Drug Screening Program (PDSP), University of North Carolina-Chapel Hill
Protocol: as §1, §2

5-HT6 = biological target: T19, 5-HT6 (Homo sapiens, UniProt P50406)
T19 construct: purchased NIMH Psychoactive Drug Screening Program (PDSP), University of North Carolina-Chapel Hill
Protocol: as §1, §2

5-ht5a = biological target: T20, 5-ht5a (Homo sapiens, UniProt P47898)
T20 construct: purchased NIMH Psychoactive Drug Screening Program (PDSP), University of North Carolina-Chapel Hill
Protocol: as §1, §2

SERT = biological target: T21, SERT (Homo sapiens, UniProt P31645)
T21 construct: purchased NIMH Psychoactive Drug Screening Program (PDSP), University of North Carolina-Chapel Hill
Protocol: as §1, §2

M4 = biological target: T22, M4 (Homo sapiens, UniProt P08173)
T22 construct: purchased NIMH Psychoactive Drug Screening Program (PDSP), University of North Carolina-Chapel Hill
Protocol: as §1, §2

D2 = biological target: T23, D2 (Homo sapiens, UniProt P14416)
T23 construct: purchased NIMH Psychoactive Drug Screening Program (PDSP), University of North Carolina-Chapel Hill
Protocol: as §1, §2

M1 = biological target: T24, M1 (Homo sapiens, UniProt P11229)
T24 construct: purchased NIMH Psychoactive Drug Screening Program (PDSP), University of North Carolina-Chapel Hill
Protocol: as §1, §2

Alpha2A = biological target: T25, Alpha2A (Homo sapiens, UniProt P08913)
T25 construct: purchased NIMH Psychoactive Drug Screening Program (PDSP), University of North Carolina-Chapel Hill
Protocol: as §1, §2

DAT = biological target: T26, DAT (Homo sapiens, UniProt Q01959)
T26 construct: purchased NIMH Psychoactive Drug Screening Program (PDSP), University of North Carolina-Chapel Hill
Protocol: as §1, §2

D4 = biological target: T27, D4 (Homo sapiens, UniProt P21917)
T27 construct: purchased NIMH Psychoactive Drug Screening Program (PDSP), University of North Carolina-Chapel Hill
Protocol: as §1, §2

H4 = biological target: T28, H4 (Homo sapiens, UniProt Q9H3N8)
T28 construct: purchased NIMH Psychoactive Drug Screening Program (PDSP), University of North Carolina-Chapel Hill
Protocol: as §1, §2

5-HT1D = biological target: T29, 5-HT1D (Homo sapiens, UniProt P28221)
T29 construct: purchased NIMH Psychoactive Drug Screening Program (PDSP), University of North Carolina-Chapel Hill
Protocol: as §1, §2

5-HT1E = biological target: T30, 5-HT1E (Homo sapiens, UniProt P28566)
T30 construct: purchased NIMH Psychoactive Drug Screening Program (PDSP), University of North Carolina-Chapel Hill
Protocol: as §1, §2

D5 = biological target: T31, D5 (Homo sapiens, UniProt P21918)
T31 construct: purchased NIMH Psychoactive Drug Screening Program (PDSP), University of North Carolina-Chapel Hill
Protocol: as §1, §2

Alpha1A = biological target: T32, Alpha1A (Homo sapiens, UniProt P35348)
T32 construct: purchased NIMH Psychoactive Drug Screening Program (PDSP), University of North Carolina-Chapel Hill
Protocol: as §1, §2

H1 = biological target: T33, H1 (Homo sapiens, UniProt P35367)
T33 construct: purchased NIMH Psychoactive Drug Screening Program (PDSP), University of North Carolina-Chapel Hill
Protocol: as §1, §2

5-HT2C = biological target: T34, 5-HT2C (Homo sapiens, UniProt P28335)
T34 construct: purchased NIMH Psychoactive Drug Screening Program (PDSP), University of North Carolina-Chapel Hill
Protocol: as §1, §2

Beta1 = biological target: T35, Beta1 (Homo sapiens, UniProt P08588)
T35 construct: purchased NIMH Psychoactive Drug Screening Program (PDSP), University of North Carolina-Chapel Hill
Protocol: as §1, §2

5-HT1B = biological target: T36, 5-HT1B (Homo sapiens, UniProt P28222)
T36 construct: purchased NIMH Psychoactive Drug Screening Program (PDSP), University of North Carolina-Chapel Hill
Protocol: as §1, §2

Alpha2B = biological target: T37, Alpha2B (Homo sapiens, UniProt P18089)
T37 construct: purchased NIMH Psychoactive Drug Screening Program (PDSP), University of North Carolina-Chapel Hill
Protocol: as §1, §2

D3 = biological target: T38, D3 (Homo sapiens, UniProt P35462)
T38 construct: purchased NIMH Psychoactive Drug Screening Program (PDSP), University of North Carolina-Chapel Hill
Protocol: as §1, §2

Beta3 = biological target: T39, Beta3 (Homo sapiens, UniProt P13945)
T39 construct: purchased NIMH Psychoactive Drug Screening Program (PDSP), University of North Carolina-Chapel Hill
Protocol: as §1, §2

Alpha2C = biological target: T40, Alpha2C (Homo sapiens, UniProt P18825)
T40 construct: purchased NIMH Psychoactive Drug Screening Program (PDSP), University of North Carolina-Chapel Hill
Protocol: as §1, §2

Alpha1D = biological target: T41, Alpha1D (Homo sapiens, UniProt P25100)
T41 construct: purchased NIMH Psychoactive Drug Screening Program (PDSP), University of North Carolina-Chapel Hill
Protocol: as §1, §2

T19 sequence (P50406 whole entry): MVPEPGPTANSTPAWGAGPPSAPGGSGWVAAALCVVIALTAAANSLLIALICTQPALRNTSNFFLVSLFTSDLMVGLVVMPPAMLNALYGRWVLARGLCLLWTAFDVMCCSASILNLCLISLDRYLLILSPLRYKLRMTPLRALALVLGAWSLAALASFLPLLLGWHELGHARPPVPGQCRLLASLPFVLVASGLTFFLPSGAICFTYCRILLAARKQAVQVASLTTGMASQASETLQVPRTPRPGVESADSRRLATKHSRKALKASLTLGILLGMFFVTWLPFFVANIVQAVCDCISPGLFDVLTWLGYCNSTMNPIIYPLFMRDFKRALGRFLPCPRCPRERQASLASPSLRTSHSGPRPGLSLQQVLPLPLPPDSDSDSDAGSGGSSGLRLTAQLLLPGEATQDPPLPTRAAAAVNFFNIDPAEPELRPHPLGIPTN
T9 sequence (P25021 whole entry): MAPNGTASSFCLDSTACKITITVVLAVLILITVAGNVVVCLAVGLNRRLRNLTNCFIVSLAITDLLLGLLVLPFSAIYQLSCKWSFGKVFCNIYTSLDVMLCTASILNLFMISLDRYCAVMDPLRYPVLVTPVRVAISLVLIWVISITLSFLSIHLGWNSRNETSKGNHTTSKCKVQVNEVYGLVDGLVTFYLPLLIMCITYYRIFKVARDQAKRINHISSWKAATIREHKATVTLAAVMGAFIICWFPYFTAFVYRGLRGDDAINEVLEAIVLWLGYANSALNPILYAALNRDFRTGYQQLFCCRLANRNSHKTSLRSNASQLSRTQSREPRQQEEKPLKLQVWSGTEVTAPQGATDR
T23 sequence (P14416 whole entry): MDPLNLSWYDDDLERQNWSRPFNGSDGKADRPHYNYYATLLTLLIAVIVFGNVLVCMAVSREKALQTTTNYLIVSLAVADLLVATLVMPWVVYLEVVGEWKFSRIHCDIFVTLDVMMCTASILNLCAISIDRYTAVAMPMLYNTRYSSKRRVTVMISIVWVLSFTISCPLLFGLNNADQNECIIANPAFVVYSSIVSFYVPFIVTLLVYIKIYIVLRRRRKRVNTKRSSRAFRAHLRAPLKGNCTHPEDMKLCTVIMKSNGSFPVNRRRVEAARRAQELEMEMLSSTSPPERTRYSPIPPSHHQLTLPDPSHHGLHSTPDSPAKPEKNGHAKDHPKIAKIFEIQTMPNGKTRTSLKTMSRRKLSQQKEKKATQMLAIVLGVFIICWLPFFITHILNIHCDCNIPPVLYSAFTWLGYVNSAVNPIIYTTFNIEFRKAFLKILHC
T37 sequence (P18089 whole entry): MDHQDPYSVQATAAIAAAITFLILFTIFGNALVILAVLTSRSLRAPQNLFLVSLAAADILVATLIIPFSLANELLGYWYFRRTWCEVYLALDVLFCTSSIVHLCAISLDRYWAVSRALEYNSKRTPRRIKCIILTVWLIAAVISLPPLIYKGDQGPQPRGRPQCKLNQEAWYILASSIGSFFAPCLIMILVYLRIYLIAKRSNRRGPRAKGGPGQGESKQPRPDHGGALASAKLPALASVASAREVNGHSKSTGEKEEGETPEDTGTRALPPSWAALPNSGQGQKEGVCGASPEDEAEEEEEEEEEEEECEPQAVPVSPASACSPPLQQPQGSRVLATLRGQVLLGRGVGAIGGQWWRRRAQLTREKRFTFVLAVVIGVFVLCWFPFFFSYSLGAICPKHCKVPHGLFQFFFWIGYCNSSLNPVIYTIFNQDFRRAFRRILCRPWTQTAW
T14 sequence (P41145 whole entry): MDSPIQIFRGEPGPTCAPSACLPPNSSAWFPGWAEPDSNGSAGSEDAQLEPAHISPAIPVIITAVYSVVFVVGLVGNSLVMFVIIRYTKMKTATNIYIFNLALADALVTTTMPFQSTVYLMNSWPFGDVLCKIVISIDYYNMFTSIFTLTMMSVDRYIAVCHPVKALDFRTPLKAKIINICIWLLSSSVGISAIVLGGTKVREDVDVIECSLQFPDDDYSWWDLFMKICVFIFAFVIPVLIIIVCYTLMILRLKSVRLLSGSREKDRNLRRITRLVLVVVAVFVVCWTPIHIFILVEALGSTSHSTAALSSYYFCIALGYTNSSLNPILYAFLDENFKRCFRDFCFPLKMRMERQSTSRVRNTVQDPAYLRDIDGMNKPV
T8 sequence (P08908 whole entry): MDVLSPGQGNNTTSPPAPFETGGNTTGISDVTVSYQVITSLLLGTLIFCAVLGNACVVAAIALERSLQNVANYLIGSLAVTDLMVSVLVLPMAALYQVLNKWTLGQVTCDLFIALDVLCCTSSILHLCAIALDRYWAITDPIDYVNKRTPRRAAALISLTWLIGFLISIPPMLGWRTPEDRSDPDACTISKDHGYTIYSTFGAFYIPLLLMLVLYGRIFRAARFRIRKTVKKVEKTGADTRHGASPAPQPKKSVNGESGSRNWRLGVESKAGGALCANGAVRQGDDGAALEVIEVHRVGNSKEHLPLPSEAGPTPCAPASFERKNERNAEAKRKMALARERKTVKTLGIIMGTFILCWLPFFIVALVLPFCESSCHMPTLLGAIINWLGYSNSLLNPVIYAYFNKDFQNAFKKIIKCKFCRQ
T25 sequence (P08913 whole entry): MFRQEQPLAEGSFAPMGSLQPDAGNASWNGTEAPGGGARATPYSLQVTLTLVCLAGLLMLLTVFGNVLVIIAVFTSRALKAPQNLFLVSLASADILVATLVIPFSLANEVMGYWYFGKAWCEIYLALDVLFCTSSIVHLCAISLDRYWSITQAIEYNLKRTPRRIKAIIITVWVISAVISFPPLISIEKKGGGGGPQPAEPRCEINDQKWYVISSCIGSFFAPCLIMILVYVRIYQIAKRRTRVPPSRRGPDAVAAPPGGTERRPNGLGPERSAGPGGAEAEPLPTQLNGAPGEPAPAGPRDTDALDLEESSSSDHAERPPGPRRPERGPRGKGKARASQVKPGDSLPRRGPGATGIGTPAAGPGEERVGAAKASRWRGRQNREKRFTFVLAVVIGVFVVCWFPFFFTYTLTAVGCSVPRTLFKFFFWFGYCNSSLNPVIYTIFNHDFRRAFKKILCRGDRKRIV
T31 sequence (P21918 whole entry): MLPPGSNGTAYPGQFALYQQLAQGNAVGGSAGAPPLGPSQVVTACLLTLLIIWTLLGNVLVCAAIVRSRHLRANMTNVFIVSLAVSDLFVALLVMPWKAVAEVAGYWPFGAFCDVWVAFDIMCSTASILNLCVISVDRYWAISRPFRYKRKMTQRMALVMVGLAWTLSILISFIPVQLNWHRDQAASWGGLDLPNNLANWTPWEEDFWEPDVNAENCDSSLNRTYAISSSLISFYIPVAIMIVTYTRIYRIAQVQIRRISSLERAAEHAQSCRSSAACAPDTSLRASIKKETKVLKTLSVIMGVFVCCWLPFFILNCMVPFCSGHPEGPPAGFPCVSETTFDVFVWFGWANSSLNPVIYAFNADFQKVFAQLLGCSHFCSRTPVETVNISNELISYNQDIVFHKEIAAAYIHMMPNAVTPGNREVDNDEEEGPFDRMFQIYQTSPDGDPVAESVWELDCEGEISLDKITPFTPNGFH
T6 sequence (P07550 whole entry): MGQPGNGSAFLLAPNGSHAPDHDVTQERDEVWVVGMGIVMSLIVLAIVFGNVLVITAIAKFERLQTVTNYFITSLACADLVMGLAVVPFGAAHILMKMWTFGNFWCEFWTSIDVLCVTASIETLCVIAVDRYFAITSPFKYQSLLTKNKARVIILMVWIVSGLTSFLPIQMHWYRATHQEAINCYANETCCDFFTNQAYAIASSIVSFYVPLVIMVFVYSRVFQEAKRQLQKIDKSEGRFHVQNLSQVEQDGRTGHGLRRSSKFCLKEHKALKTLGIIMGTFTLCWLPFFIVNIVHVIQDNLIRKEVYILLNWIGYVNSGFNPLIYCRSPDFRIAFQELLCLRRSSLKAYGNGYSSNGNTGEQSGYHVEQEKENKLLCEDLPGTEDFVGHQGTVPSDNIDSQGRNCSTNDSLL
T13 sequence (Q99720 whole entry): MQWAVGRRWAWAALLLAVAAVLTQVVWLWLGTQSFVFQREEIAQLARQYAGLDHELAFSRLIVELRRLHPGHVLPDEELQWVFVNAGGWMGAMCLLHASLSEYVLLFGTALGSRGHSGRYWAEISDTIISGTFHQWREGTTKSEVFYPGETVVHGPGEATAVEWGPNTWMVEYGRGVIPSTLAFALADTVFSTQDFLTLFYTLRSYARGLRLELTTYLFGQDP
T41 sequence (P25100 whole entry): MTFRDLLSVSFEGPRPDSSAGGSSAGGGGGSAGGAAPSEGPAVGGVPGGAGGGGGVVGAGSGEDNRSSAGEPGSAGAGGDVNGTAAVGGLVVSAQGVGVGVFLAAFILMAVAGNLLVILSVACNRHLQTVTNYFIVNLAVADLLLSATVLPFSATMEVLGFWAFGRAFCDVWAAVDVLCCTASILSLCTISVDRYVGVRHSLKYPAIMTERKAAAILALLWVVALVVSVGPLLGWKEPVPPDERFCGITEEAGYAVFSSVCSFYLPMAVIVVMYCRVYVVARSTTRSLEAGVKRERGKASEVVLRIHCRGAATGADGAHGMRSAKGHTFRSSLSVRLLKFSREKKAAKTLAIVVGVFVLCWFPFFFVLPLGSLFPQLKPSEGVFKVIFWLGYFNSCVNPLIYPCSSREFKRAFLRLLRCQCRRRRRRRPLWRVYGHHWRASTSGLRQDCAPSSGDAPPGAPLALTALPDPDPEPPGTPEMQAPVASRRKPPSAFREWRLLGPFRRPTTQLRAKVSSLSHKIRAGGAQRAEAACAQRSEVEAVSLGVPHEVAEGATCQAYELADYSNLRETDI

Clc1ccc(CNCc2ccc(Cn3cncn3)cc2)c(Cl)c1 [compound 22]
inhibition at 10 µM (M5): 1.4% | inhibition at 10 µM (5-HT2B): 6.7% | inhibition at 10 µM (5-HT2A): 2.1% | inhibition at 10 µM (M2): 7.1% | inhibition at 10 µM (MOR): -3.7% | inhibition at 10 µM (Beta2): -0.6% | inhibition at 10 µM (5-HT7): 20.2% | inhibition at 10 µM (5-HT1A): 9.3% | inhibition at 10 µM (H2): 45.2% | inhibition at 10 µM (M3): 15.5% | inhibition at 10 µM (DOR): 6.2% | inhibition at 10 µM (Alpha1B): 12.8% | inhibition at 10 µM (Sigma 1): 93.2% | inhibition at 10 µM (KOR): -10.2% | inhibition at 10 µM (5-HT3): 6% | inhibition at 10 µM (H3): 17.8% | inhibition at 10 µM (D1): 16.1% | inhibition at 10 µM (NET): 93.4% | inhibition at 10 µM (5-HT6): 4.6% | inhibition at 10 µM (5-ht5a): 15.3% | inhibition at 10 µM (SERT): 57.3% | inhibition at 10 µM (M4): 15.9% | inhibition at 10 µM (D2): 36.7% | inhibition at 10 µM (M1): 18.3% | inhibition at 10 µM (Alpha2A): 32.4% | inhibition at 10 µM (DAT): 60.5% | inhibition at 10 µM (D4): 17.6% | inhibition at 10 µM (H4): -9.8% | inhibition at 10 µM (5-HT1D): 9.7% | inhibition at 10 µM (5-HT1E): -1.7% | inhibition at 10 µM (D5): -6.8% | inhibition at 10 µM (Alpha1A): -13.9% | inhibition at 10 µM (H1): 6.3% | inhibition at 10 µM (5-HT2C): 18.5% | inhibition at 10 µM (Beta1): -3.5% | inhibition at 10 µM (5-HT1B): -13.5% | inhibition at 10 µM (Alpha2B): 22.6% | inhibition at 10 µM (D3): 9.4% | inhibition at 10 µM (Beta3): -9.1% | inhibition at 10 µM (Alpha2C): -4.3% | inhibition at 10 µM (Alpha1D): 11.6%

From article PMC6131539, “Behavioral Effects of a Potential Novel TAAR1 Antagonist” (Frontiers in Pharmacology, 2018)
